# From patent US20070105840A1, “Pyrrolo-dihydroisoquinoline derivatives as pde10 inhibitors” (Altana Pharma AG, priority 2003, published 2007)
row,SMILES,melting point [°C]
1,"CCOC(=O)c1c(-c2cc(C)c(O)c(C)c2)c(C)n2c1-c1cc(OC)c(OC)cc1CC2C (racemic) [Example 5, (5RS)-(4-Hydroxy-3,5-dimethyl-phenyl)-8,9-dimethoxy-3,5-dimethyl-5,6-dihydro-pyrrolo[2,1-a]isoquinoline-1-carboxylic acid ethyl ester]",158 to 161
2,"CCOC(=O)c1c(-c2cc(C)c(O)c(C)c2)c(C)n2c1-c1cc(OC)c(OC)cc1CC2CC (racemic) [Example 6, (5RS)-5-Ethyl-2-(4-hydroxy-3,5-dimethyl-phenyl)-8,9-dimethoxy-3-methyl-5,6-dihydro-pyrrolo[2,1-a]isoquinoline-1-carboxylic acid ethyl ester]",164 to 166
3,"CCOC(=O)c1c(-c2cc(C)c(O)c(C)c2)c(CC)n2c1-c1cc(OC)c(OC)cc1CC2C (racemic) [Example 9, (5RS)-3-Ethyl-2-(4-hydroxy-3,5-dimethyl-phenyl)-8,9-dimethoxy-5-methyl-5,6-dihydro-pyrrolo[2,1-a]isoquinoline-1-carboxylic acid ethyl ester]",188 to 190
4,"CCOC(=O)c1c(-c2cc(OC)c(OC)c(OC)c2)c(C)n2c1-c1cc(OC)c(OC)cc1CC2C (racemic) [Example 10, (5RS)-8,9-Dimethoxy-3,5-dimethyl-2-(3,4,5-trimethoxy-phenyl)-5,6-dihydro-pyrrolo[2,1-a]isoquinoline-1-carboxylic acid ethyl ester]",116 to 118
5,"CCOC(=O)c1c(-c2cccc3ccccc23)c(C)n2c1-c1cc(OC)c(OC)cc1CC2C (racemic) [Example 11, (5RS)-8,9-Dimethoxy-3,5-dimethyl-2-naphthalen-1-yl-5,6-dihydro-pyrrolo[2,1-a]isoquinoline-1-carboxylic acid ethyl ester]",184
6,"CCOC(=O)c1c(-c2cccc3ccccc23)c(CCC(=O)OC)n2c1-c1cc(OC)c(OC)cc1CC2C (racemic) [Example 20, (5RS)-8,9-Dimethoxy-3-(2-methoxycarbonyl-ethyl)-5-methyl-2-naphthalen-1-yl-5,6-dihydro-pyrrolo[2,1-a]isoquinoline-1-carboxylic acid ethyl ester]",56 to 59
7,"CCOC(=O)c1c(-c2cc(C)c(O)c(C)c2)c(C)n2c1-c1cc(OC)c(OC)cc1C1CCCCC12 (stereo not drawn) [Example 8, (4aRS,8aRS)-cis-2-(4-hydroxy-3,5-dimethyl-phenyl)-10,11-dimethoxy-3-methyl-4a,5,6,7,8,8a-hexahydro-pyrrolo[2,1-f]phenanthridine-1-carboxylic acid ethyl ester]",186 to 192
8,"CCOC(=O)c1c(-c2cccc3ccccc23)c(C)n2c1-c1cc(OC)c(OC)cc1C1CCCCC12 (stereo not drawn) [Example 12, (4aRS,8aRS)-cis-10,11-Dimethoxy-3-methyl-2-naphthalen-1-yl-4a,5,6,7,8,8a-hexahydro-pyrrolo[2,1-f]phenanthridine-1-carboxylic acid ethyl ester]",189 to 191
9,"CCOC(=O)c1c(-c2ccnc3ccccc23)c(C)n2c1-c1cc(OC)c(OC)cc1C1CCCCC12 (stereo not drawn) [Example 13, (4aRS,8aRS)-cis-10,11-Dimethoxy-3-methyl-2-quinolin-4-yl-4a,5,6,7,8,8a-hexahydro-pyrrolo[2,1-f]phenanthridine-1-carboxylic acid ethyl ester]",153 to 157
10,"CCOC(=O)c1c(-c2cc(C)c(O)c(C)c2)c(C)n2c1-c1cc(OC)c(OC)c(OC)c1CC2C (stereo not drawn) [Example 18, (5RS)-2-(4-Hydroxy-3,5-dimethyl-phenyl)-7,8,9-bimethoxy-3,5-dimethyl-5,6-dihydro-pyrrolo[2,1-a]isoquinoline-1-carboxylic acid ethyl ester]",144
11,"COc1cc2c(cc1OC)-c1c(C#N)c(-c3cccc4ccccc34)c(C)n1CC2 [Example 22, 8,9-Dimethoxy-3-methyl-2-naphthalen-1-yl-5,6-dihydro-pyrrolo[2,1-a]isoquinoline-1-carbonitrile]",226 to 229
12,"COc1cc2c(cc1OC)-c1c(C#N)c(-c3ccnc4ccccc34)c(C)n1CC2 [Example 23, 8,9-Dimethoxy-3-methyl-2-quinolin-4yl-5,6-dihydro-pyrrolo[2,1-a]isoquinoline-1-carbonitrile]",239 to 243
13,"COc1cc2c(cc1OC)-c1c(C#N)c(-c3c[nH]c4ccccc34)c(C)n1CC2 [Example 24, 2-(1H-indol-3-yl)-8,9-dimethoxy-3-methyl-5,6-dihydro-pyrrolo[2,1-a]isoquinoline-1-carbonitrile]",304 to 307
14,"COc1cc2c(cc1OC)-c1c(C#N)c(-c3cc(C(C)(C)C)c(O)c(C(C)(C)C)c3)c(C)n1CC2 [Example 25, 2-(3,5-Di-tert-butyl-4-hydroxy-phenyl)-8,9-dimethoxy-3-methyl-5,6-dihydro-pyrrolo[2,1-a]isoquinoline-1-carbonitrile]",250 to 252
15,"COC(=O)CCc1c(-c2cc(C)c(O)c(C)c2)c(C#N)c2n1C(C)Cc1cc(OC)c(OC)cc1-2 (centres unmarked) [Example 27, 3-[1-Cyano-2-(4-hydroxy-3,5-dimethyl)-8,9-dimethoxy-5-methyl-5,6-dihydro-pyrrolo[2,1-a]isoquinolin-3-yl]-propionic acid methyl ester]",208 to 209
16,"COC(=O)CCc1c(-c2ccncc2)c(C#N)c2n1CCc1cc(OC)c(OC)cc1-2 [Example 29, 3-(1-Cyano-8,9-dimethoxy-2-pyridin-4-yl-5,6-dihydro-pyrrolo[2,1-a]isoquinolin-3-yl)-propionic acid methyl ester]",191 to 193
17,"COc1cc2c(c(F)c1OC)CC(C)n1c(C)c(-c3cc(C)c(O)c(C)c3)c(C#N)c1-2 (centres unmarked) [Example 30, 7-Fluoro-2-(4-hydroxy-3,5-dimethyl-phenyl)-8,9-dimethoxy-3,5-dimethyl-5,6-dihydro-pyrrolo[2,1-a]isoquinoline-1-carbonitrile]",166 to 168
18,"COC(=O)CCc1c(-c2ccnc3ccccc23)c(C#N)c2n1CCc1cc(OC)c(OC)cc1-2 [Example 31, 3-(1-Cyano-8,9-dimethoxy-2-quinolin-4-yl-5,6dihydro-pyrrolo[2,1-a]isoquinolin-3-yl)-propionic acid methyl ester]",232 to 234
19,"COC(=O)CCc1c(-c2cc(C)c(O)c(C)c2)c(C#N)c2n1CCc1cc(OC)c(OC)cc1-2 [Example 32, 3-[1-Cyano-2-(4-hydroxy-3,5-dimethyl-phenyl)-8,9-dimethoxy-5,6-dihydro-pyrrolo[2,1-a]isoquinolin-3-yl]-propionic acid methyl ester]",217 to 219
20,"COc1cc2c(cc1OC)-c1c(C#N)c(-c3cn(S(C)(=O)=O)c4ccccc34)c(C)n1C(C)C2 (centres unmarked) [Example 40, 2-(1-Methanesulfonyl-1H-indol-3-yl)-8,9-dimethoxy-3,5-dimethyl-5,6-dihydro-pyrrolo[2,1-a]isoquinoline-1-carbonitrile]",219 to 221
21,"COc1cc2c(cc1OC)-c1c(C#N)c(-c3cc(C)c(O)c(C)c3)c(CN3CCOCC3)n1C(C)C2 (centres unmarked) [Example 44, 2-(4-Hydroxy-3,5-dimethyl-phenyl)-8,9-dimethoxy-5-methyl-3-morpholin-4-ylmethyl-5,6-dihydro-pyrrolo[2,1-a]isoquinoline-1-carbonitrile]",228 to 230

# Second part, the compound after the results:
row,melting point [°C],SMILES
1,253 to 254,"COc1cc2c(cc1OC)-c1c(C#N)c(-c3ccncc3)c(C)n1C(C)C2 (centres unmarked) [Example 26, 8,9-Dimethoxy-3,5-dimethyl-2-pyridin-4-5,6-dihydro-pyrrolo[2,1-a]isoquinoline-1-carbonitrile]"
2,268 to 270,"COc1cc2c(cc1OC)-c1c(C#N)c(-c3cc(C)c(O)c(C)c3)c(C)n1C(C)C2 (centres unmarked) [Example 28, 2-(4-Hydroxy-3,5-dimethyl-phenyl)-8,9-dimethoxy-3,5-dimethy-5,6-dihydro-pyrrolo[2,1-a]isoquinoline-1-carbonitrile]"
3,279 to 282,"COc1cc2c(cc1OC)-c1c(C#N)c(-c3cc[n+]([O-])cc3)c(C)n1C(C)C2 (centres unmarked) [Example 41, 8,9-Dimethoxy-3,5-dimethyl-2-(1-oxy-pyridin-4-yl)-5,6-dihydro-pyrolo[2,1-a]isoquinoline-1-carbonitrile]"
4,187 to 189,COc1cc2c(cc1OC)-c1c(C#N)c(-c3ccnc(C)c3)c(C)n1C(C)C2 (centres unmarked) [Example 45]
5,206 to 207,"COc1cc2c(cc1OC)-c1c(C#N)c(-c3ccc([N+](=O)[O-])cc3)c(C)n1C(C)C2 (centres unmarked) [Example 46, 8,9-Dimethoxy-3,5-dimethyl-2-(4-nitro-phenyl)-5,6-dihydro-pyrrolo[2,1-a]isoquinoline-1-carbonitrile]"
6,287 to 289,"COc1cc2c(cc1OC)-c1c(C#N)c(-c3ccc(C(=O)O)cc3)c(C)n1C(C)C2 (centres unmarked) [Example 47, 4-(1-Cyano-8,9-dimethoxy-3,5-dimethyl-5,6-dihydro-pyrrolo[2,1-a]isoquinolin-2-yl)-benzoic acid]"
7,237 to 239,"COc1cc2c(cc1OC)-c1c(C#N)c(-c3ccc(N)cc3)c(C)n1C(C)C2 (centres unmarked) [Example 48, 2-(4-Amino-phenyl)-8,9-dimethoxy-3,5-dimethyl-5,6-dihydm-pyrrolo[2,1-a]isoquinoline-1-carbonitrile]"
8,232 to 233,"COc1cc2c(cc1OC)-c1c(C#N)c(-c3ccncc3C)c(C)n1C(C)C2 (centres unmarked) [Example 49, 8,9-Dimethoxy-3,5-dimethyl-2-(3-methyl-pyridin-4-yl)-5,6-dihydro-pyrrolo[2,1-a]isoquinoline-1-carbonitrile]"
9,274 to 277,"CCOc1cc2c(cc1OC)-c1c(C#N)c(-c3ccc(C(=O)O)cc3)c(C)n1C(C)C2 (centres unmarked) [Example 50, 4-(1-Cyano-8-ethoxy-9-methoxy-3,5-dimethyl-5,6-dihydro-pyrrolo[2,1-a]isoquinolin-2-yl)-benzoic acid]"
10,228 to 230,"COc1cc2c(cc1OC)-c1c(C#N)c(-c3ccc(O)cc3C)c(C)n1C(C)C2 (centres unmarked) [Example 51, 2-(4-Hydroxy-2-methyl-phenyl)-8,9-dimethoxy-3,5-dimethyl-5,6-dihydro-pyrrolo[2,1-a]isoquinoline-1-carbonitrile]"
11,228 to 230,"COc1cc2c(cc1OC)-c1c(C#N)c(-c3ccc(C(N)=O)cc3)c(C)n1C(C)C2 (centres unmarked) [Example 52, 4-(1-Cyano-8,9-dimethoxy-3,5-dimethyl-5,6-dihydro-pyrrolo[2,1-a]isoquinolin-2-yl)-benzamide]"
